Results taken from US20150141460A1, “Anti-inflammatory Compositions” (Cambridge Enterprise Limited, priority 2007, published 2015).

Assays:
[1] = Pharmacokinetics following a single dose in rat (1 mg/kg iv, 3 mg/kg oral), LC-MS/MS, one-compartment model; type: in vivo
Description: Compounds were administered as a single dose (either 1 mg/kg bodyweight in 5% DMSO via the intravenous route or 3 mg/kg in 1% carboxymethylcellulose via the oral route) to three adult rats (using different rats for each compound and each route of administration).
Blood was then sampled at various time points (including just prior to dose administration) out to 24 hrs post dose, and the level of the various compounds was assessed using a validated LC-MS/MS assay. Briefly, 3-5 μl of the deproteinised sample was applied to a Waters Atlantis (C18 20×2.1 mm, 3 μm bead size) reverse phase chromatography column equilibrated in 0.1% formic acid in 95:5 water:actetonitrile. Over 3.5 minutes bound material was gradient eluted reaching 0.1% formic acid in 5:95 water:acetonitrile, followed by a step gradient back to 0.1% formic acid in 95:5 water:acetonitrile. The column eluent was then directed to an Applied Biosystems API 4000/3200 QTrap MS/MS mass spectrometer, with a TurboIonspray™ ion source operating in positive ion mode. The interface temperature was set at 650° C., with a 40 ms dwell time for each MRM transition, monitoring the following ions:
The internal standard in each determination was the related compound (S)-3-(2′,2′-dimethyl-propanoylamino)-caprolactam, which was spiked into the sample prior to deproteinization. The lower limit of quantitation (LLOQ) for this assay was 2.4 ng/ml for each compound except (I′), where it was 38.1 ng/ml.
Following LC-MS/MS analysis of each collected sample, the pharmacokinetic disposition of the compound was modelled using Kinetica software, a well known software package for such applications.
Compounds (VI) and (VII) were subject to pharmacokinetic analysis in rat using exactly the same protocols previous applied for compounds (I) through (V) in example 1.
We therefore subjected (VIII) to pharmacokinetic analysis in rat using exactly the same protocols previous applied for compounds (I′) through (VII) in examples 1 and 7.
The isolated (R)-enantiomer of (I) was therefore synthesised (exactly as described herein for the isolated (S)-enantiomer, but replacing the (S)-ornithine starting material with commercially available (R)-ornithine of high stereochemical purity), and the PK properties of this agent, in rat, was determined using the identical methodology described above (see Examples 1, 7 and 8).

[2] = test system: RANTES induced migration of THP-1 cells; experiment: ChemoTx transwell migration assay, RANTES induced migration of THP-1 cells; type: cell-based; details: Homo sapiens; THP-1 cell line; maximal dose of chemoattractant; read-out: ED50 RANTES induced migration
Description: In principle, this assay consists of two chambers separated by a porous membrane. The chemoattractant is placed in the lower compartment and the cells are placed in the upper compartment. After incubation for a period at 37° C. the cells move towards the chemoattractant, and the number of cells in the lower compartment is proportional to the chemoattractant activity (relative to a series of controls).
Next, the chemoattractant solution to be placed in the lower compartment is prepared. For example, MCP-1 is diluted in GBSS+BSA to give a final concentration of 25 ng/ml. This is divided into two pots, as for the cell suspension. To one pot, the test compound is added to the same final concentration as was added to the cell suspension, while to the other pot an equal volume of GBSS+BSA plus vehicle as appropriate (e.g., not more than 1% DMSO) is added. Alternatively, other chemokines may be used (SDF-1α at 7.5 ng/ml; RANTES at 50 ng/ml; IL-8 at 10 ng/ml using neutrophils as the target cell population). […]
The impact of the test substance is calculated by comparing the chemoattractant-induced migration which occurred in the presence or absence of various concentrations of the test substance. Typically, the inhibition of migration is expressed as a percentage of the total chemoattractant-induced migration which was blocked by the presence of the compound. […]

SMILES	clearance, times lower than for the other lactam BSCIs [1]	plasma half-life, fold longer than the other compounds [1]	AUC(0-t) ([1]; blood, single oral dose 3 mg/kg in 1% CMC, Tables 7-9, read-out: Exposure (min · ng/ml), oral exposure AUC 0-t (converted))	oral exposure, fold higher than the next best compound (V) ([1]; oral 3 mg/kg)	EC50 [2]	minor t½β [1]
CC(C)(C)C(=O)N[C@H]1CCCNC1=O [Compound (I′), (S)-3-(2′,2′-dimethylpropanoylamino)-tetrahydropyridin-2-one]	more than 10 times	10 fold	15600 ng·h/mL	~20 fold	80 pM	
O=C1NCCCC[C@@H]1NC(=O)C12CC3CC(CC(O)(C3)C1)C2 [Compound (V), 3-(3′-hydroxyadamantyl-1-carbonylamino)-caprolactam]					250 pM	1.83 h
